Measurements published in ChEMBL document CHEMBL1158018 (J Nat Prod, 1999).
pIC50: −log10 of the molar value.

Tests used:
[1] = Antioxidant activity in liposomal model assessed as inhibition of ferrous ion-induced lipid peroxidation at 2 mM; format: functional; set-up: scale not given: the % may be the effect or the level left
[2] = biological target: Prostaglandin G/H synthase 1 (Homo sapiens, UniProt P23219); assay: Inhibition of PGHS1 assessed as conversion of arachidonic acid to prostaglandin
Sequence of Prostaglandin G/H synthase 1 (P23219 whole entry): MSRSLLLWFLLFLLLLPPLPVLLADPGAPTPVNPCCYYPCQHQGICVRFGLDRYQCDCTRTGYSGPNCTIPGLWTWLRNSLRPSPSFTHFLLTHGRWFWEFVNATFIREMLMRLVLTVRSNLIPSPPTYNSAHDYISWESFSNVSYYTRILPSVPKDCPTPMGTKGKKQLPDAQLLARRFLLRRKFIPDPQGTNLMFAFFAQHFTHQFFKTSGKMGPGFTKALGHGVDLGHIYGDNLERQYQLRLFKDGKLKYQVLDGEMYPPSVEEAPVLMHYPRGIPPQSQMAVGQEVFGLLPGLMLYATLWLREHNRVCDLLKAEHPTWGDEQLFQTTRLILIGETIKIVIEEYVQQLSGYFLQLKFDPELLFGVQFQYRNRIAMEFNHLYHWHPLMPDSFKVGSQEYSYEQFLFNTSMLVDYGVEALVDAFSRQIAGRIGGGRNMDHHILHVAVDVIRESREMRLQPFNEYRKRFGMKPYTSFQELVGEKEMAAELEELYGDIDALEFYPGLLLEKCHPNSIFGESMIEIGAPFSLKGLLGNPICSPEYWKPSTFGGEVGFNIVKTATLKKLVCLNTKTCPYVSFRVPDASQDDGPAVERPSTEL

pIC50 [2]: 4.05
Structure (SMILES): Oc1cc(O)c2cc(O)c(-c3ccc(O)c(O)c3)[o+]c2c1 [CYANIDIN]
Activity [1]: 57%
